From PubChem BioAssay (NCI)
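Cultured in 96-well plates, cells were exposed to test compound for 48 hours across five concentrations. TGI denotes the concentration required for complete inhibition of growth.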

Experiments:
Test in all cases: inhibition of tumour cell growth, NCI panel, 48 h
[1] = system: UO-31 renal
[2] = system: NCI-H226 lung
[3] = system: K-562 leukemia
[4] = system: HT29 colon
[5] = system: A549 NSCLC
[6] = system: SR leukemia
[7] = system: NCI/ADR-RES ovarian
[8] = system: UACC-62 melanoma
[9] = system: MCF7 breast
[10] = system: NCI-H460 lung
[11] = system: HS 578T breast
[12] = system: OVCAR-3 ovarian
[13] = system: COLO 205 colon
[14] = system: MDA-N
[15] = system: MDA-MB-435
[16] = system: PC-3 prostate
[17] = system: OVCAR-8 ovarian
[18] = system: IGROV1 ovarian
[19] = system: M14 melanoma
[20] = system: SF-539 CNS
[21] = system: MOLT-4 leukemia
[22] = system: OVCAR-5 ovarian
[23] = system: SK-MEL-28 melanoma
[24] = system: DU-145 prostate
[25] = system: A498 renal
[26] = system: KM12 colon
[27] = system: OVCAR-4 ovarian
[28] = system: BT-549 breast
[29] = system: HOP-92 NSCLC
[30] = system: NCI-H23 lung
[31] = system: SF-295 CNS
[32] = system: T-47D breast
[33] = system: EKVX NSCLC
[34] = system: ACHN renal
[35] = system: HL-60(TB) leukemia
[36] = system: SF-268 CNS
[37] = system: U251 CNS
[38] = system: 786-0 renal
[39] = system: MALME-3M melanoma
[40] = system: MDA-MB-231 breast
[41] = system: NCI-H522 lung
[42] = system: RXF 393 renal
[43] = system: HOP-62 NSCLC
[44] = system: LOX IMVI melanoma
[45] = system: SNB-19 CNS
[46] = system: HCT-15 colon
[47] = system: SK-MEL-2 melanoma
[48] = system: CAKI-1 renal
[49] = system: SK-OV-3 ovarian
[50] = system: SN12C renal
[51] = system: CCRF-CEM leukemia
[52] = system: HCT-116 colon
[53] = system: RPMI-8226 leukemia
[54] = system: UACC-257 melanoma
[55] = system: SNB-75 CNS
[56] = system: SW-620 colon
[57] = system: HCC-2998 colon
[58] = system: DMS 273 small cell lung
[59] = system: LXFL 529 NSCLC
[60] = system: SK-MEL-5 melanoma
[61] = system: XF 498 CNS
[62] = system: TK-10 renal
[63] = system: M19-MEL melanoma
[64] = system: DLD-1 colon
[65] = system: KM20L2 colon
[66] = system: HOP-18 NSCLC

Q: Which results are given for CSC(=N/C=C/c1ccccc1)SC?
A: TGI [1]: > 100 µM; TGI [2]: > 100 µM; TGI [3]: > 100 µM; TGI [4]: > 100 µM; TGI [5]: > 100 µM; TGI [6]: > 100 µM; TGI [7]: > 100 µM; TGI [8]: > 100 µM; TGI [9]: > 100 µM; TGI [10]: > 100 µM; TGI [11]: > 100 µM; TGI [12]: > 100 µM; TGI [13]: > 100 µM; TGI [14]: > 100 µM; TGI [15]: > 100 µM; TGI [16]: > 100 µM; TGI [17]: > 100 µM; TGI [18]: > 100 µM; TGI [19]: > 100 µM; TGI [20]: > 100 µM; TGI [21]: > 100 µM; TGI [22]: > 100 µM; TGI [23]: > 100 µM; TGI [24]: > 100 µM; TGI [25]: > 100 µM; TGI [26]: > 100 µM; TGI [27]: > 100 µM; TGI [28]: > 100 µM; TGI [29]: > 100 µM; TGI [30]: > 100 µM; TGI [31]: > 100 µM; TGI [32]: > 100 µM; TGI [33]: > 100 µM; TGI [34]: > 100 µM; TGI [35]: > 100 µM; TGI [36]: > 100 µM; TGI [37]: > 100 µM; TGI [38]: > 100 µM; TGI [39]: > 100 µM; TGI [40]: > 100 µM; TGI [41]: > 100 µM; TGI [42]: > 100 µM; TGI [43]: > 100 µM; TGI [44]: > 100 µM; TGI [45]: > 100 µM; TGI [46]: > 100 µM; TGI [47]: > 100 µM; TGI [48]: > 100 µM; TGI [49]: > 100 µM; TGI [50]: > 100 µM; TGI [51]: > 100 µM; TGI [52]: > 100 µM; TGI [53]: > 100 µM; TGI [54]: > 100 µM; TGI [55]: > 100 µM; TGI [56]: > 100 µM

Q: Which TGI [57] does the source give for CC1CN1P1(N2CC2C)=NP(N2CC2C)(N2CC2C)=NP(N2CC2C)(N2CC2C)=N1 (stereo not given) here?
A: > 50 µM

Q: And the TGI [1]?
A: > 50 µM

Q: And the TGI [2]?
A: > 50 µM

Q: What about the TGI [3] of the same molecule?
A: > 50 µM

Q: And the TGI [4]?
A: > 50 µM

Q: And the TGI [5]?
A: > 50 µM

Q: What about the TGI [6] of the same molecule?
A: > 50 µM

Q: And the TGI [10]?
A: > 50 µM

Q: What about the TGI [12] of the same molecule?
A: > 50 µM

Q: And the TGI [58]?
A: > 50 µM

Q: And the TGI [13]?
A: > 50 µM

Q: And the TGI [17]?
A: > 50 µM

Q: What about the TGI [59] of the same molecule?
A: > 50 µM

Q: What about the TGI [18] of the same molecule?
A: > 50 µM

Q: And the TGI [19]?
A: > 50 µM

Q: What about the TGI [20] of the same molecule?
A: > 50 µM

Q: What about the TGI [60] of the same molecule?
A: > 50 µM

Q: What about the TGI [61] of the same molecule?
A: > 50 µM

Q: What about the TGI [21] of the same molecule?
A: > 50 µM

Q: And the TGI [23]?
A: > 50 µM

Q: What about the TGI [62] of the same molecule?
A: > 50 µM

Q: What about the TGI [63] of the same molecule?
A: > 50 µM

Q: And the TGI [25]?
A: > 50 µM

Q: And the TGI [27]?
A: > 50 µM

Q: And the TGI [64]?
A: > 50 µM

Q: And the TGI [29]?
A: > 50 µM

Q: And the TGI [65]?
A: > 50 µM

Q: And the TGI [30]?
A: > 50 µM

Q: And the TGI [31]?
A: > 50 µM

Q: What about the TGI [33] of the same molecule?
A: > 50 µM

Q: What about the TGI [34] of the same molecule?
A: > 50 µM

Q: And the TGI [35]?
A: > 50 µM

Q: What about the TGI [36] of the same molecule?
A: > 50 µM

Q: And the TGI [37]?
A: > 50 µM

Q: And the TGI [38]?
A: > 50 µM

Q: What about the TGI [39] of the same molecule?
A: > 50 µM

Q: What about the TGI [41] of the same molecule?
A: > 50 µM

Q: And the TGI [42]?
A: > 50 µM

Q: And the TGI [45]?
A: > 50 µM

Q: What about the TGI [46] of the same molecule?
A: > 50 µM

Q: What about the TGI [48] of the same molecule?
A: > 50 µM

Q: And the TGI [49]?
A: > 50 µM

Q: And the TGI [50]?
A: > 50 µM

Q: What about the TGI [51] of the same molecule?
A: > 50 µM

Q: What about the TGI [52] of the same molecule?
A: > 50 µM

Q: What about the TGI [66] of the same molecule?
A: > 50 µM

Q: What about the TGI [53] of the same molecule?
A: > 50 µM

Q: And the TGI [55]?
A: > 50 µM

Q: And the TGI [56]?
A: > 50 µM
